Values quoted from earlier work in patent US20220305218A1, “LUMINAL OXYGEN DELIVERY AND DEVICE FOR TREATING DISEASES AND CONDITIONS ASSOCIATED WITH STRICT ANAEROBIC MICROORGANISMS” (priority 2021, published 2022).

Tests used:
[1] = tested on: C. difficile strains
[2] = tested on: C. difficile

Structure (SMILES) | resistance rate [1] [%] | time C. difficile can persist in a vegetative state ([2]; room air (20% oxygen, 160 mm Hg)) [h] | oxygen partial pressure at which C. difficile is unable to grow ([2]; strict, obligate anaerobe) [mm Hg]
Cc1ncc([N+](=O)[O-])n1CCO [metronidazole] | ~1 |  | 
O=O [oxygen] |  | ~24 | ≥ 3
CN[C@H](CC(C)C)C(=O)N[C@H]1C(=O)N[C@@H](CC(N)=O)C(=O)N[C@H]2C(=O)N[C@H]3C(=O)N[C@H](C(=O)N[C@H](C(=O)O)c4cc(O)cc(O)c4-c4cc3ccc4O)[C@H](O)c3ccc(c(Cl)c3)Oc3cc2cc(c3O[C@@H]2O[C@H](CO)[C@@H](O)[C@H](O)[C@H]2O[C@H]2C[C@](C)(N)[C@H](O)[C@H](C)O2)Oc2ccc(cc2Cl)[C@H]1O [vancomycin] | ~1 |  | 
